These results are taken from patent publication US20150231198A1 (priority 2014, published 2015).

pIC50: −log10 of the molar value.

One data set concerns Jurkat. Briefly: cells. Type of data set: cell-based. As to conditions: Homo sapiens, 48 h, read-out: IC50 (concentration that inhibits viability by 50%).
The test system of the next data set is HH. In words: cells. Type of data set: cell-based.
A further data set concerns Sup-T1. Briefly: cells. In kind it is cell-based. The conditions noted are these: Homo sapiens, SUP-T1, 48 h, read-out: IC50 (concentration that inhibits viability by 50%).
The conditions of data set [1]: water; cited from earlier work.
In the next data set the test system is HD-MAR2. Briefly: cells. In kind it is cell-based. As to conditions: 48 h, read-out: IC50 (concentration that inhibits viability by 50%).
Another data set relates to SUP-T1 cells. In words: Flow cytometry apoptosis (Annexin V-FITC/PI), SUP-T1. In kind it is cell-based. As to conditions: 48 hours.
Data set [2] concerns protein, primarily albumin. The conditions noted are these: cited from earlier work.
Data set [3] deals with Primary GFP+ cells from the Itk-Syk transgenic mouse model. Briefly: Apoptosis and synergy in primary GFP+ cells from Itk-Syk transgenic mouse. Type of data set: cell-based. The conditions noted are these: 48 hours.
The test system of a further data set is Karpas 299. Briefly: cells. In kind it is cell-based. As to conditions: Homo sapiens, KARPAS-299, 48 h, read-out: IC50 (concentration that inhibits viability by 50%).
A further data set concerns Karpas 299 cell line. Briefly: Flow cytometry apoptosis (Annexin V-FITC/PI), Karpas 299. Type of data set: cell-based. On the technique in general: In flow cytometry, cells or beads pass a laser one at a time.
For data set [4] the following is noted: in vivo; cited from earlier work.
For data set [5] the following is noted: after intravenous infusion; cited from earlier work.

In the case of `Cn1c(CCCC(=O)O)nc2cc(N(CCCl)CCCl)ccc21` [bendamustine], the pIC50 in the data set with Jurkat is 4.75; in the data set on Sup-T1, 5.05; in the data set on HD-MAR2, 5.03; with Karpas 299, 4.49. Besides, in the data set on HH (concentrations as high as 30 μM, 48 hours of exposure), the “growth inhibition (sensitivity of cell line)” value was “resistant”. Moreover, the solubility result in data set [1] is listed as “water soluble”. Moreover, the “apoptosis induced, % cells” value with SUP-T1 cells (SUP-T1, bendamustine alone) is on record as 50%. Moreover, the “drug bound to protein” value in data set [2] is “More than 95%”. Also, in data set [3] (bendamustine alone), the “apoptosis induced, % of the cells” value is recorded as 72%. In the data set with Karpas 299 cell line (Karpas 299, bendamustine at 10 μM (IC50-60)), this compound showed an apoptotic cells of 35%. The “incidence of hair loss (alopecia)” value in data set [4] is “low incidence”. In addition, the “half-life (first phase of biphasic elimination)” value in data set [5] was 6 to 10 min. Also, the terminal half-life entry in data set [5] is “approximately 30 minutes”.
Turning to `C/C=C1\NC(=O)[C@H]2CSSCC/C=C/[C@H](CC(=O)N[C@H](C(C)C)C(=O)N2)OC(=O)[C@H](C(C)C)NC1=O` [romidepsin, (1S,4S,7Z,10S,16E,21R)-7-ethyl idene-4,21-bis(1-methylethyl)-2-oxa-12,13-dithia-5,8,20,23-tetrazabicyclo[8.7.6]tricos-16-ene-3,6,9,19,22-pentone], the pIC50 with Jurkat is 9.34; in the data set on HH (Homo sapiens, 48 h, read-out: IC50 (concentration that inhibits viability by 50%)), 8.77; with Sup-T1, 9.03; with HD-MAR2, 9.48; in the data set on Karpas 299 it was 9.25. Moreover, in the data set with SUP-T1 cells (SUP-T1, romidepsin alone), the “apoptosis induced, % cells” value is on record as 31%. In addition, the “apoptosis induced, % of the cells” value in data set [3] (romidepsin alone) worked out at 60%. In the data set with Karpas 299 cell line (Karpas 299, romidepsin alone at 1 nM), the “apoptosis induced, % of the cell population” value is given as “up to 40%”.
